Measured values reported in patent publication US10258606B2, “Endothelin single nucleotide polymorphisms and methods of predicting β-adrenergic receptor targeting agent efficacy” (The Regents of the University of Colorado, A Body Corporate, priority 2007, dated 2019).

How the values were obtained:
[1] = tested on: 1040 BEST DNA Bank subjects; conditions: bucindolol treated subjects carrying the Arg-389 allele of the beta-1-adrenergic receptor (ADRB); cited from earlier work
[2] = tested on: subjects with idiopathic dilated cardiomyopathy; test: BEST (Beta-Blocker Evaluation of Survival Trial) DNA substudy: time to event by endothelin gene system genotype, Cox proportional hazards model; assay type: in vivo, human; conditions: for Event/number, first heart failure hospitalization or death: FIG. 1; for E, number of events / HR associated with each copy of allele A, allele dosage Cox model / HR associated with each copy of allele Asn, allele dosage Cox model: bucindolol arm; for HR associated with each copy of allele A, allele dosage Cox model: G/A (IVS-4); for HR associated with each copy of allele Asn, allele dosage Cox model: Lys198Asn
Text: 309 subjects with idiopathic dilated cardiomyopathy were studied from the Beta-Blocker Evaluation of Survival Trial (BEST) (2001). BEST was a multicenter, randomized, prospective trial of patients with NYHA class III or IV heart failure and an ejection fraction <35% comparing mortality in adults treated with placebo or the non-selective β-blocker bucindolol. The BEST DNA bank, initiated in the study's second year, collected samples from 38% of the original participants. The inventors requested samples from idiopathic dilated cases, rather than the entire cohort, to ensure a more homogenous heart failure population. In particular, the inventors sought to avoid studying […] ischemic forms of heart failure where acquired macrovascular changes in arterial stiffness or tone could potentially mask or override inherent microvascular phenotypes mediated by variation in endothelin genes. Written informed consent was obtained from each participant and all DNA was coded to maintain confidentiality. The genotyping project was approved by the BEST DNA Bank Oversight Committee and by the Colorado Multiple Institutional Review Board
Time to each of two endpoints was examined: all cause death and a combined endpoint comprised of first heart failure hospitalization or all cause death, using the Cox proportional hazards model. Genotype was treated a priori as a continuous variable, consistent with an allele dosage effect. Analyses were conducted using R and SAS. Primary analyses consisted of separate tests of a main genotype effect on time to event for each SNP within each treatment arm: placebo (N=159) and bucindolol (N=150). Secondary analyses, in the combined sample (N=309), consisted of tests of a genotype-treatment pharmacogenetic interaction and of a main genotype effect independent of treatment arm. Secondary analyses, comprised of interaction tests and estimation of within-genotype bucindolol:placebo hazard ratios, were also performed. Ethnicity was not included as a factor in initial Cox models, because of the relatively small sample. However, post-hoc analyses (within ethnic group, and including ethnicity-genotype interactions) were used to explore whether initial results were due to unaccounted for ethnic stratification. Linkage disequilibrium was assessed by taking the R^2 value (squared correlation) of the genotypes (coded as 0, 1 or 2) between two SNPs.
To account for the large number of simultaneous tests, adjusted p-values obtained from a multiple-testing permutation procedure are reported (Westfall and Young, 1993). Based on the actual data set, 5000 random data sets were generated by randomly permuting the time to event data relative to the genotype data, separately for patients on placebo and for patients on bucindolol. […] Adjusted p-values for interaction tests are based on 18 tests (2 outcomes×9 SNPs).
Cox model analysis was also used to examine a variety of more complicated models, and to describe the quantify the effects of bucindolol in terms of bucindolol:placebo hazard ratios, within genotype. Kaplan-Meier plots and log-rank tests were also examined. All p-values were based on two-sided tests. The statistical analysis was performed at the Veterans Affairs Cooperative Studies Program DNA Bank Coordinating Center.

[3] = combined endpoint, Non-Hispanic Blacks
[4] = combined endpoint, Non-Hispanic Whites

## CC(C)(Cc1c[nH]c2ccccc12)NCC(O)COc1ccccc1C#N (centres unmarked) [Bucindolol, bucindolol]
[1]
  all-cause mortality: reduced all-cause mortality
[2]; IVS-4 G/A common homozygotes
  Event/number, first heart failure hospitalization or death: 21/84
[2]; IVS-4 G/A heterozygotes
  Event/number, first heart failure hospitalization or death: 21/58
[2]; IVS-4 G/A rare homozygotes
  Event/number, first heart failure hospitalization or death: 7/8
[2]; Lys198Asn common homozygotes
  Event/number, first heart failure hospitalization or death: 22/87
[2]; Lys198Asn heterozygotes
  Event/number, first heart failure hospitalization or death: 20/55
[2]; Lys198Asn rare homozygotes
  Event/number, first heart failure hospitalization or death: 7/8
[2]; combined endpoint, G/A (IVS-4) analysis, All (N 150)
  E, number of events: 49
[2]; combined endpoint, G/A (IVS-4) analysis, Non-Hispanic Blacks (N 38)
  E, number of events: 16
[2]; combined endpoint, G/A (IVS-4) analysis, Non-Hispanic Whites (N 100)
  E, number of events: 27
[2]; combined endpoint, All
  HR associated with each copy of allele A, allele dosage Cox model: 2.2
  HR associated with each copy of allele Asn, allele dosage Cox model: 2.0
[2]; [3]
  HR associated with each copy of allele A, allele dosage Cox model: 1.58
  HR associated with each copy of allele Asn, allele dosage Cox model: 1.5
[2]; [4]
  HR associated with each copy of allele A, allele dosage Cox model: 1.9
  HR associated with each copy of allele Asn, allele dosage Cox model: 1.9
[2]; combined endpoint, Lys198Asn analysis, All (N 150)
  E, number of events: 49
[2]; combined endpoint, Lys198Asn analysis, Non-Hispanic Blacks (N 38)
  E, number of events: 16
[2]; combined endpoint, Lys198Asn analysis, Non-Hispanic Whites (N 100)
  E, number of events: 27
[2]; combined endpoint (first heart failure hospitalization or all cause mortality), EDN1 G/A (IVS-4) genotype GG
  Hazard ratio for bucindolol versus placebo: 0.5
[2]; combined endpoint, EDN1 G/A (IVS-4) genotype AA
  Hazard ratio for bucindolol versus placebo: 3.2
[2]; combined endpoint, EDN1 G/A (IVS-4) genotype GA
  Hazard ratio for bucindolol versus placebo: 1.1
[2]; combined endpoint, EDN1 Lys198Asn genotype Asn/Asn
  Hazard ratio for bucindolol versus placebo: 2.5
[2]; combined endpoint, EDN1 Lys198Asn genotype Lys/Asn
  Hazard ratio for bucindolol versus placebo: 1.1
[2]; combined endpoint, EDN1 Lys198Asn genotype Lys/Lys
  Hazard ratio for bucindolol versus placebo: 0.5
[2]; common homozygotes (statistically significant)
  apparent effect of bucindolol on combined endpoint: beneficial effect
[2]; heterozygotes
  apparent effect of bucindolol on combined endpoint: neutral effect
[2]; rare homozygotes
  apparent effect of bucindolol on combined endpoint: harmful effect
[2]; the 5.5% of subjects homozygous for the rare complementary haplotype
  combined endpoint hazard rate on bucindolol relative to placebo: almost three times greater
